Target: Histone-lysine N-methyltransferase EZH2 (Homo sapiens, UniProt Q15910, Y641F)
Assay: Biological Assay: EZH2 Histone Methyl Transferase Assay: The effectiveness of compounds of the present invention as inhibitors of histone methyl transferases can be readily tested by assays known to those skilled in the art. For example, in vitro histone methyl transferase assays may be conducted with a relevant purified histone methyl transferase and an appropriate synthetic substrate to determine the inhibitory activity of the compounds. Assays for inhibition of EZH2 by the instant compounds were performed in 384-well plates with reaction mixtures containing 350 nM of histone peptide substrate (ATKAAR-K(Me2)-SAPATGGVKKPHRYRPG-GK(Biotin), 500 nM S-[methyl-3H]adenosyl-L-methionine (55-85 Ci/mmol), 50 mM Tris-HCl (pH 9.0), 50 mM NaCl, 1 mM dithiothreitol, Tween-20 at 0.01% and fatty-acid free bovine serum albumin at 0.01%, and recombinant EZH2-641F complex (EZH2 Y641F/EED/SUZ12/RbAp48/AEBP2) at 5 nM (>98% purity, BPS Bioscience) or 15 nM (50% purity, in-house). Reaction mixtures were incubated at room temperature for 3 hours, and the reactions were terminated by 0.005% poly-L-lysine solution in 20 mM Tris-HCl (pH 7.5) and 150 mM NaCl. Reaction products were captured by binding to strepavidin-conjugated imaging beads. Incorporation of radioactive methyl group into the histone peptide substrate was determined in Leadseeker (GE Healthcare) by means of scintillation proximity assay.

Chain of Histone-lysine N-methyltransferase EZH2 (Q15910 whole entry Y641F): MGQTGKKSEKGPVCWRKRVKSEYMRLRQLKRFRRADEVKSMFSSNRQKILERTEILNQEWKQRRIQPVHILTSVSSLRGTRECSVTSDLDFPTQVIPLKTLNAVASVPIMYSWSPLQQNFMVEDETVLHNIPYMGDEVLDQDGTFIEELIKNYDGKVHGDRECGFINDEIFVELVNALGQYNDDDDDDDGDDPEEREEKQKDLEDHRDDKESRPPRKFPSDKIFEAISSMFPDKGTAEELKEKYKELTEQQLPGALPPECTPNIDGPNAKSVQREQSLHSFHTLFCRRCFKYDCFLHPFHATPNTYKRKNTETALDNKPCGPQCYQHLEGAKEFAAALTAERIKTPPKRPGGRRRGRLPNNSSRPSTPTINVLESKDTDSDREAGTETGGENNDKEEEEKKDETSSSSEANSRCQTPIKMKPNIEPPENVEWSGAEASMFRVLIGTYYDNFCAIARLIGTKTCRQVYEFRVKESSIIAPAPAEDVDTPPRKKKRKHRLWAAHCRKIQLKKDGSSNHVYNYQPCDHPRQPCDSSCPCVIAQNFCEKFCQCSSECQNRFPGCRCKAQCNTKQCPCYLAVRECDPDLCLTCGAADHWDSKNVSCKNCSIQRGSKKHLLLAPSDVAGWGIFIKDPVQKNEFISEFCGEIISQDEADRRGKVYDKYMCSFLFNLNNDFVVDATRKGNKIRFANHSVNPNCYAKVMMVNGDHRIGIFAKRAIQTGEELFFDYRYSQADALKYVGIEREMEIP

Q: How did the IC50 turn out when `Cc1cc(C)c(CNC(=O)c2cc3c(c(C(F)(F)F)c2)OC(C)(C)C3)c(=O)[nH]1` was run?
A: Its IC50 is over 1000 nM.

Q: For `C=C(C)C1(C)Cc2cc(C(=O)NCc3c(CCC)cc(C)[nH]c3=O)cc(-c3cnc(N4CCNCC4)nc3)c2O1` (centres undefined), which IC50 is on record?
A: Its IC50 is under 500 nM.

Q: Which IC50 does the source give for `C=C(C)C1(C)Cc2cc(C(=O)NCc3c(C)cc(C)[nH]c3=O)cc(-c3ccc(N4CCNCC4)nc3)c2O1` (centres undefined) here?
A: The IC50 was under 500 nM.

Q: With `C=C(C)C1(C)Cc2cc(C(=O)NCc3c(CCC)cc(C)[nH]c3=O)cc(-c3ccc(N4CCNCC4)nc3)c2O1` (centres undefined) as the compound, how does the IC50 read?
A: Its IC50 is under 500 nM.

Q: Which IC50 does the source give for `CCC1COc2cc(C(=O)NCc3c(C)cc(C)[nH]c3=O)cc(-c3ccc(N4CCNCC4)nc3)c2O1` (centres undefined) here?
A: The IC50 was over 1000 nM.

Q: With `CCCc1cc(C)[nH]c(=O)c1CNC(=O)c1cc2c(c(-c3ccc(N4CCNCC4)nc3)c1)OC(C)(C(C)C)C2` (centres undefined) as the compound, how does the IC50 read?
A: Its IC50 is under 500 nM.

Q: `Cc1cc(C)c(CNC(=O)c2cc(Br)c3c(c2)OC/C=C\CO3)c(=O)[nH]1` was tested. Which IC50 did it give?
A: The IC50 was over 1000 nM.

Q: Which IC50 does the source give for `COc1ccc(-c2cc(C(=O)NCc3c(C)cc(C)[nH]c3=O)cc3c2OC(C)(C(C)C)C3)cn1` (centres undefined) here?
A: Its IC50 is over 1000 nM.

Q: `COc1ccc(-c2cc(C(=O)NCc3c(C)cc(C)[nH]c3=O)cc3c2OCC3(C)C)cn1` was tested. Which IC50 did it give?
A: The IC50 was over 1000 nM.

Source: ChEMBL document CHEMBL5726641, “Inhibitors of lysine methyl transferase” (2017)
